From the supplement of paper PMC10307832

What was measured:
Experiment in all cases: relative viability (nuclei count vs DMSO), 5 days (fraction); higher = more cells survive
[1] = compound: CN1C=C(C2=CC=CC=C21)/C=C\3/C4=C(C=CC=N4)NC3=O + CC1(C)CCC(c2ccc(Cl)cc2)=C(CN2CCN(c3ccc(C(=O)NS(=O)(=O)c4ccc(N[C@H](CCN5CCOCC5)CSc5ccccc5)c(S(=O)(=O)C(F)(F)F)c4)cc3)CC2)C1 [Navitoclax] (partner 0.5 µM)
How it was run: (§1)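 Lung cancer cell lines were seeded in 1536-well plates and dosed by pin tool the next day, with either a single drug or a fixed anchor-drug dose combined with five library-drug doses (not always all listed) spaced in √10 steps. Five days later, one step fixed the cells and stained their nuclei (final 0.05% Triton X-100, 1% formaldehyde, 1 ug/ml Hoechst), and nuclei were counted on 4× images. Relative viability is the nuclei count in treated wells divided by the count in vehicle wells, and each value is the median of duplicate plates.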

Trametinib + Crizotinib = compound: CC(=O)Nc1cccc(-n2c(=O)n(C3CC3)c(=O)c3c(Nc4ccc(I)cc4F)n(C)c(=O)c(C)c32)c1 [Trametinib] + C[C@@H](Oc1cc(-c2cnn(C3CCNCC3)c2)cnc1N)c1c(Cl)ccc(F)c1Cl [Crizotinib] (partner 1 µM)
How it was run: as §1

[2] = compound: CN1C=C(C2=CC=CC=C21)/C=C\3/C4=C(C=CC=N4)NC3=O + NC(=O)Nc1cc(-c2cccc(F)c2)sc1C(=O)N[C@H]1CCCNC1 [AZD7762] (partner 0.2 µM)
How it was run: as §1

[3] = compound: CN1C=C(C2=CC=CC=C21)/C=C\3/C4=C(C=CC=N4)NC3=O + Nc1nc2[nH]cc(CCc3ccc(C(=O)N[C@@H](CCC(=O)O)C(=O)O)cc3)c2c(=O)[nH]1 [Pemetrexed] (partner 0.2 µM)
How it was run: as §1

Row | Cell Line | relative viability ([1]; first compound 0.02 µM) | relative viability ([1]; first compound 0.06325 µM) | relative viability ([1]; first compound 0.2 µM) | relative viability ([1]; first compound 0.6325 µM) | relative viability ([1]; first compound 2 µM) | relative viability (Trametinib + Crizotinib; first compound 0.0025 µM) | relative viability (Trametinib + Crizotinib; first compound 0.007906 µM) | relative viability (Trametinib + Crizotinib; first compound 0.025 µM) | relative viability (Trametinib + Crizotinib; first compound 0.07906 µM) | relative viability (Trametinib + Crizotinib; first compound 0.25 µM) | relative viability ([2]; first compound 0.02 µM) | relative viability ([2]; first compound 0.6325 µM) | relative viability ([2]; first compound 2 µM) | relative viability ([3]; first compound 0.02 µM) | relative viability ([3]; first compound 0.06325 µM) | relative viability ([3]; first compound 0.2 µM) | relative viability ([3]; first compound 0.6325 µM) | relative viability ([3]; first compound 2 µM) | relative viability ([2]; first compound 0.06325 µM) | relative viability ([2]; first compound 0.2 µM)
1 | A549 | 1.36 | 1.27 | 1.15 | 1.24 | 1.15 | 0.64 | 0.44 | 0.394 | 0.181 | 0.074 | – | – | – | – | – | – | – | – | – | –
2 | ABC-1 | – | – | – | – | – | 0.99 | 1.03 | 0.972 | 1.07 | 0.634 | 0.889 | 0.708 | 0.874 | – | – | – | – | – | – | –
3 | COR-L23 | 1.19 | 0.983 | 1.03 | 1 | 1.09 | 0.66 | 0.682 | 0.665 | 0.425 | 0.337 | – | – | – | 0.197 | 0.189 | 0.209 | 0.18 | 0.19 | – | –
4 | COR-L 105 | 0.552 | 0.563 | 0.711 | 0.727 | 0.873 | 0.729 | 0.605 | 0.374 | 0.329 | 0.285 | – | – | – | 1.07 | 0.969 | 1.12 | 1.28 | 1.3 | – | –
5 | Calu-6 | 0.804 | 0.772 | 0.746 | 0.908 | 0.859 | 0.737 | 0.557 | 0.398 | 0.168 | 0.107 | – | – | – | – | – | – | – | – | – | –
6 | EBC-1 | 0.37 | 0.426 | 0.384 | 0.48 | 0.498 | 0.196 | 0.181 | 0.187 | 0.159 | 0.162 | – | – | – | – | – | – | – | – | – | –
7 | IA-LM | 1.05 | 0.833 | 0.731 | 0.749 | 0.541 | 0.771 | 0.407 | 0.16 | 0.141 | 0.112 | – | – | – | – | – | – | – | – | – | –
8 | LCLC-103H | – | – | – | – | – | 0.938 | 1.07 | 0.799 | 0.756 | 0.76 | 0.864 | 0.741 | 0.786 | 0.455 | 0.455 | 0.483 | 0.482 | 0.462 | 0.758 | 0.73
9 | NCI-H520 | 0.935 | 1.03 | 1.09 | 1.17 | 1.17 | 0.752 | 0.681 | 0.815 | 0.733 | 0.557 | – | – | – | 0.67 | 0.53 | 0.698 | 0.672 | 0.732 | – | –
10 | NCI-H522 | – | – | – | – | – | – | – | – | – | – | 0.686 | 1.1 | 0.882 | 0.743 | 0.775 | 0.878 | 1.1 | 0.998 | 0.784 | 0.76
11 | NCI-H661 | – | – | – | – | – | 1.12 | 1.19 | 1.03 | 1.04 | 1.08 | – | – | – | 1.02 | 0.902 | 0.89 | 0.985 | 0.972 | – | –
12 | NCI-H1299 | 1.04 | 0.988 | 1.02 | 1.12 | 1.02 | 0.951 | 0.926 | 0.869 | 0.848 | 0.521 | – | – | – | – | – | – | – | – | – | –
13 | NCI-H1563 | – | – | – | – | – | 0.944 | 0.747 | 0.817 | 0.785 | 0.623 | – | – | – | 0.827 | 0.694 | 0.703 | 0.665 | 0.752 | – | –
14 | NCI-H1648 | – | – | – | – | – | – | – | – | – | – | 0.705 | 0.522 | 0.816 | 0.729 | 0.777 | 0.922 | 0.691 | 0.739 | 0.502 | 0.673
15 | NCI-H1650 | 0.901 | 0.984 | 0.927 | 0.918 | 1.19 | 1.04 | 0.779 | 0.795 | 0.69 | 0.302 | – | – | – | 0.39 | 0.352 | 0.371 | 0.384 | 0.328 | – | –
16 | NCI-H2009 | 1.11 | 1.12 | 1.2 | 1.24 | 1.24 | 1.08 | 0.586 | 0.336 | 0.301 | 0.266 | – | – | – | 1.02 | 0.947 | 1.06 | 1.02 | 1.02 | – | –
17 | NCI-H2023 | 1.06 | 0.935 | 0.961 | 1.03 | 0.996 | 0.597 | 0.543 | 0.475 | 0.442 | 0.247 | – | – | – | 0.274 | 0.171 | – | 0.25 | 0.2 | – | –
18 | NCI-H2228 | 1.22 | 0.796 | – | 0.67 | 0.812 | 0.33 | 0.398 | 0.438 | 0.254 | 0.247 | – | – | – | 0.337 | 0.305 | 0.349 | 0.372 | 0.365 | – | –
19 | NCI-H2342 | – | – | – | – | – | – | – | – | – | – | 0.434 | 0.42 | 0.406 | 0.704 | 0.747 | 0.736 | 0.756 | 0.767 | 0.459 | 0.393
20 | SK-LU-1 | 0.482 | 0.812 | 0.802 | 1 | 1.23 | 0.976 | 0.87 | 0.775 | 0.619 | 0.371 | – | – | – | 0.736 | 0.919 | 0.898 | 1.03 | 0.946 | – | –
21 | SK-MES-1 | 0.902 | 1.04 | 1.26 | 1.11 | 1.15 | 0.997 | 0.991 | 0.792 | 0.543 | 0.334 | – | – | – | 0.846 | 0.856 | 0.687 | 0.954 | 0.852 | – | –
22 | SW 900 | – | – | – | – | – | – | – | – | – | – | 0.512 | 0.555 | 0.591 | 0.474 | – | – | 0.512 | 0.486 | – | –
23 | SW 1573 | 1.18 | 0.861 | 1.02 | 1.12 | 0.893 | 0.781 | 0.603 | 0.601 | 0.518 | 0.462 | – | – | – | 0.785 | 0.806 | 0.788 | 0.93 | 0.906 | – | –
